Assay results published in PubChem BioAssay AID2060603 (Molecular Pharmacology Branch, DTP, NCI, 2025).

Test system: 422866-222-R5-J1-PDC spheroid viability
Experiment: Anticancer human tumor 422866-222-R5-J1-PDC patient-derived pancreatic adenocarcinoma cell line growth inhibition [CLK]
Settings: spheroids with HUVEC and MSC; for IC50: curve of first compound; for viability, T/C: stronger effect = lower value
How it was run: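 Patient-derived tumor cells grown as complex spheroids with HUVEC endothelial cells and mesenchymal stem cells, treated with drug combinations. Concentrations descend in half-log steps from near clinical Cmax, or from 10 microM if Cmax unknown.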
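Note: spheroids exposed to agents for seven days before readout.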

Q: How did the IC50 (second compound 0.0316 µM) turn out when `C=CC(=O)Nc1cc(Nc2nccc(-c3cn(C)c4ccccc34)n2)c(OC)cc1N(C)CCN(C)C` + CNC(=O)c1ccc(Nc2nc(OC3CCCC3)c3c(-c4ccc5nc(C)oc5c4)c[nH]c3n2)c(OC)c1 was run?
A: The IC50 was greater than 300 nM.

Q: What about the IC50 (second compound 0.1 µM) of the same molecule?
A: Its IC50 is greater than 300 nM.

Q: What about the IC50 (second compound 0.316 µM) of the same molecule?
A: Its IC50 is greater than 300 nM.

Q: What about the IC50 (second compound 1 µM) of the same molecule?
A: Its IC50 is greater than 300 nM.

Q: What about the IC50 (second compound 3.16 µM) of the same molecule?
A: The IC50 was greater than 300 nM.

Q: What about the IC50 (second compound 10 µM) of the same molecule?
A: The IC50 was greater than 300 nM.

Q: And the viability, T/C (second compound 0.0316 µM, first compound 0.000949 µM)?
A: Its viability, T/C is 98.9%.

Q: What about the viability, T/C (second compound 0.0316 µM, first compound 0.003 µM) of the same molecule?
A: Its viability, T/C is 98.2%.

Q: And the viability, T/C (second compound 0.0316 µM, first compound 0.00949 µM)?
A: Its viability, T/C is 85.4%.

Q: What about the viability, T/C (second compound 0.0316 µM, first compound 0.03 µM) of the same molecule?
A: Its viability, T/C is 79.2%.

Q: And the viability, T/C (second compound 0.0316 µM, first compound 0.0949 µM)?
A: The viability, T/C was 69.7%.

Q: What about the viability, T/C (second compound 0.0316 µM, first compound 0.3 µM) of the same molecule?
A: The viability, T/C was 77.1%.

Q: And the viability, T/C (second compound 0.1 µM, first compound 0.000949 µM)?
A: Its viability, T/C is 103%.

Q: And the viability, T/C (second compound 0.1 µM, first compound 0.003 µM)?
A: The viability, T/C was 82.9%.

Q: And the viability, T/C (second compound 0.1 µM, first compound 0.00949 µM)?
A: The viability, T/C was 74.5%.

Q: What about the viability, T/C (second compound 0.1 µM, first compound 0.03 µM) of the same molecule?
A: Its viability, T/C is 71.8%.

Q: What about the viability, T/C (second compound 0.1 µM, first compound 0.0949 µM) of the same molecule?
A: The viability, T/C was 70.7%.

Q: And the viability, T/C (second compound 0.1 µM, first compound 0.3 µM)?
A: Its viability, T/C is 57.1%.

Q: And the viability, T/C (second compound 0.316 µM, first compound 0.000949 µM)?
A: The viability, T/C was 66.3%.

Q: And the viability, T/C (second compound 0.316 µM, first compound 0.003 µM)?
A: Its viability, T/C is 73.5%.

Q: And the viability, T/C (second compound 0.316 µM, first compound 0.00949 µM)?
A: Its viability, T/C is 68%.

Q: What about the viability, T/C (second compound 0.316 µM, first compound 0.03 µM) of the same molecule?
A: The viability, T/C was 58.7%.

Q: What about the viability, T/C (second compound 0.316 µM, first compound 0.0949 µM) of the same molecule?
A: Its viability, T/C is 59.2%.

Q: And the viability, T/C (second compound 0.316 µM, first compound 0.3 µM)?
A: The viability, T/C was 60.7%.

Q: What about the viability, T/C (second compound 1 µM, first compound 0.000949 µM) of the same molecule?
A: Its viability, T/C is 60.8%.

Q: And the viability, T/C (second compound 1 µM, first compound 0.003 µM)?
A: The viability, T/C was 65.8%.

Q: And the viability, T/C (second compound 1 µM, first compound 0.00949 µM)?
A: Its viability, T/C is 60.9%.

Q: What about the viability, T/C (second compound 1 µM, first compound 0.03 µM) of the same molecule?
A: Its viability, T/C is 65.5%.

Q: And the viability, T/C (second compound 1 µM, first compound 0.0949 µM)?
A: Its viability, T/C is 59.3%.

Q: What about the viability, T/C (second compound 1 µM, first compound 0.3 µM) of the same molecule?
A: The viability, T/C was 54.8%.

Q: And the viability, T/C (second compound 3.16 µM, first compound 0.000949 µM)?
A: The viability, T/C was 52.8%.

Q: What about the viability, T/C (second compound 3.16 µM, first compound 0.003 µM) of the same molecule?
A: Its viability, T/C is 61.6%.

Q: And the viability, T/C (second compound 3.16 µM, first compound 0.00949 µM)?
A: Its viability, T/C is 60.4%.

Q: What about the viability, T/C (second compound 3.16 µM, first compound 0.03 µM) of the same molecule?
A: Its viability, T/C is 56.4%.

Q: And the viability, T/C (second compound 3.16 µM, first compound 0.0949 µM)?
A: The viability, T/C was 62.7%.

Q: And the viability, T/C (second compound 3.16 µM, first compound 0.3 µM)?
A: The viability, T/C was 54.9%.

Q: What about the viability, T/C (second compound 10 µM, first compound 0.000949 µM) of the same molecule?
A: The viability, T/C was 69.6%.

Q: And the viability, T/C (second compound 10 µM, first compound 0.003 µM)?
A: Its viability, T/C is 68.8%.

Q: And the viability, T/C (second compound 10 µM, first compound 0.00949 µM)?
A: Its viability, T/C is 63.5%.

Q: And the viability, T/C (second compound 10 µM, first compound 0.03 µM)?
A: The viability, T/C was 62.4%.

Q: What about the viability, T/C (second compound 10 µM, first compound 0.0949 µM) of the same molecule?
A: Its viability, T/C is 55.6%.

Q: What about the viability, T/C (second compound 10 µM, first compound 0.3 µM) of the same molecule?
A: The viability, T/C was 51.7%.
